Test results published in US7064116B2, “GABAA modulating neurosteroids” (priority 2000, dated 2006).

Legend:
[1] = target: benzodiazepine site of the GABAA/BZ/chloride channel complex (rat brain GBR enriched synaptosomal preparation); experiment: Enhancement of [3H]-Flunitrazepam binding to the benzodiazepine site in rat brain synaptosomal membranes; conditions: for EC50: enhancement of 1 nM [3H]-Flunitrazepam binding, 40 μg rat brain synaptosomal membrane, 30° C., 30 min; for Maximum stimulation: maximum stimulation of 1 nM [3H]-Flunitrazepam specific binding, normalized to control without test compound

Row | SMILES | melting point [°C] | EC50 [1] | Maximum stimulation [1] [%]
1 | C[C@]12CC[C@@H](N=[N+]=[N-])C[C@@H]1CC[C@@H]1[C@@H]2CC[C@]2(C)[C@@H](C(=O)CBr)CC[C@@H]12 | 108 to 110 | – | –
2 | C=C=CC(O)[C@H]1CC[C@H]2[C@@H]3CC[C@H]4CC(O)CC[C@]4(C)[C@H]3CC[C@]12C (mixture of isomers) [17β-(1-hydroxy-2,3-butadienyl)-5α-androstane-3ol (mixture of C-20 epimers), 17β-(1-hydroxy-2,3-butadienyl)-5α-androstane-3-ol] | 174 to 177 | 5.9 nM | 45.8
3 | C#CC(OC)[C@H]1CC[C@H]2[C@@H]3CC[C@H]4C[C@H](O)CC[C@]4(C)[C@H]3CC[C@]12C (mixture of isomers) [17β-(1-methoxy-2-propynyl)-5α-androstan-3α-ol (mixture of C-20 epimers), 17β-(1-methoxy-2-propynyl)-5α-androstan-3α-ol] | 161 to 163 | 4.48 nM | 18.1
4 | C#CC(O)[C@H]1CC[C@H]2[C@@H]3CC[C@H]4CC(O)CC[C@]4(C)[C@H]3CC[C@]12C (single isomer, unassigned) [17β-(1-hydroxy-2-propynyl)-5α-androstan-3-ol (less polar C-20 epimer), 17β-(1-hydroxy-2-propynyl)-5α-androstan-3-ol] | – | inactive | –
5 | COc1ccc(C#CC(O)[C@H]2CC[C@H]3[C@@H]4CC[C@H]5C[C@H](O)CC[C@]5(C)[C@H]4CC[C@]23C)cc1 (single isomer, unassigned) [17β-[1-hydroxy-3-(4-methoxyphenyl)-2-propynyl]-5α-androstan-3α-ol] | – | 36.3 nM | 23.3
6 | C[C@]12CC[C@@H](N=[N+]=[N-])C[C@@H]1CC[C@@H]1[C@@H]2CC[C@]2(C)[C@@H](C(=O)CN=[N+]=[N-])CC[C@@H]12 [3α,21-di-azido-5α-pregnan-20-one] | 133 to 135 | 314 nM | 16.4
7 | CC(=O)[C@H]1CC[C@H]2[C@@H]3CC[C@H]4C[C@H](N=[N+]=[N-])CC[C@]4(C)[C@H]3CC[C@]12C [3α-azido-5α-pregnan-20-one, 3α-Azido-5α-pregnan-20-one] | 159 to 162 | inactive | –
8 | CC(=O)[C@H]1CC[C@H]2[C@@H]3CC[C@H]4C[C@H](O)CC[C@]4(C)[C@H]3CC[C@]12C [3α-hydroxy-5α-pregnan-20-one, reference compound] | – | 212 nM | 36
9 | C[C@]12CC[C@@H](O)C[C@@H]1CC[C@@H]1[C@@H]2CC[C@]2(C)[C@@H](C#CBr)CC[C@@H]12 [17β-(2-bromoethynyl)-5α-androstane-3α-ol] | 165 to 167 | 326 nM | 72.7
10 | COC(=O)C#C[C@H]1CC[C@H]2[C@@H]3CC[C@H]4C[C@H](O)CC[C@]4(C)[C@H]3CC[C@]12C [17β-(2-methoxycarbonylethynyl)-5α-androstane-3α-ol] | 135 to 137 | 515 nM | 55.6
11 | CC(O)C#C[C@H]1CC[C@H]2[C@@H]3CC[C@H]4C[C@H](O)CC[C@]4(C)[C@H]3CC[C@]12C (stereo partly drawn) [17β-(3-hydroxy-1-butynyl)-5α-androstane-3α-ol] | 169 to 171 | inactive | –
12 | CC(=O)C#C[C@H]1CC[C@H]2[C@@H]3CC[C@H]4C[C@H](O)CC[C@]4(C)[C@H]3CC[C@]12C [17β-(3-oxo-1-butynyl)-5α-androstan-3α-ol] | 148 to 150 | inactive | –
13 | Cc1ccc(C#C[C@H]2CC[C@H]3[C@@H]4CC[C@H]5C[C@H](O)CC[C@]5(C)[C@H]4CC[C@]23C)cc1 [17β-[2-(4-tolyl)ethynyl]-5α-androstane-3α-ol] | 178 to 180 | 2380 nM | 52.6
